Source: patent US20130210099A1, “METHOD FOR THE PRODUCTION OF ERYTHRITOL” (ANNIKKI GMBH, priority 2010, published 2013)

T1: Err1 (Trichoderma reesei, UniProt Q0GYU5)
T1 sequence (Q0GYU5 1-331): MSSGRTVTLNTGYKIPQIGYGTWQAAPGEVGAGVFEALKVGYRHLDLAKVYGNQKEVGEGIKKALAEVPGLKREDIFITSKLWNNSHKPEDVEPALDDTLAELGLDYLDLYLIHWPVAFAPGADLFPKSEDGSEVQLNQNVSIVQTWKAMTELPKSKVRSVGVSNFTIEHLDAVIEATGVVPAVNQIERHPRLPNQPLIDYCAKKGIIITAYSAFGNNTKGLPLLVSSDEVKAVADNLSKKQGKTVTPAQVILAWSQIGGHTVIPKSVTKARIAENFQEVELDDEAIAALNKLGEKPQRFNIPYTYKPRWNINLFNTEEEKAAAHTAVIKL

B1: Err1 (Trichoderma reesei) (protein)
chain: MSSGRTVTLNTGYKIPQIGYGTWQAAPGEVGAGVFEALKVGYRHLDLAKVYGNQKEVGEGIKKALAEVPGLKREDIFITSKLWNNSHKPEDVEPALDDTLAELGLDYLDLYLIHWPVAFAPGADLFPKSEDGSEVQLNQNVSIVQTWKAMTELPKSKVRSVGVSNFTIEHLDAVIEATGVVPAVNQIERHPRLPNQPLIDYCAKKGIIITAYSAFGNNTKGLPLLVSSDEVKAVADNLSKKQGKTVTPAQVILAWSQIGGHTVIPKSVTKARIAENFQEVELDDEAIAALNKLGEKPQRFNIPYTYKPRWNINLFNTEEEKAAAHTAVIKL

What was measured:
[1] = molecular target: T2, GST::err1 fusion proteins (Trichoderma reesei, UniProt Q0GYU5); experiment: Enzyme assay measuring NADPH-decrease with different substrates; format: biochemical; conditions: NADPH decrease at 340 nm; 400 μM NADPH, 10 mM substrate, 30° C., pH 7
T2 construct: made in house; host or cells: E. coli BL21 (DE3) pLysS
Procedure: The following 1 mL assay was performed: 400 μM NADPH (in 10 mM sodium phosphate buffer, pH 7), and 25 μL purified GST::err1 enzyme were mixed in an lmL quartz cuvette and incubated at 30° C. for 1 min. Then adding D-erythrose to a final concentration of 10 mM started the reaction. The decrease of NADPH concentration was measured in a spectrophotometer at 340 nm. As a control, a blank was performed using water instead of D-erythrose.

Err1 = molecular target: T1, Err1; experiment: Determination of Vmax and Km according to Liepins et al. (2006)
[2] = molecular target: T2, GST::err1 fusion proteins; experiment: HPLC analysis of the enzymatic conversion of erythrose; format: biochemical; conditions: 4 mM NADPH, 5 mM erythrose, 25° C. or 37° C., 2 h
Procedure: The following 1 mL assays have been performed prior to HPLC analysis: Assay 1 comprised 4 mM NADPH (in 10 mM sodium phosphate buffer, pH 7), 25 μL purified GST::err1 enzyme, 5 mM erythrose and was incubated at 25° C. for 2 hours. Assay 2 was performed according to assay 1, but was incubated at 37° C. for 2 h. Both assays were stopped by incubating at 85° C. for 10 min and afterwards were filtered using 0.2 μm filters. As negative control assay 3 was performed like assay 1, but was immediately stopped by incubation at 85° C. for 10 min and assay 4 was performed according to assay 1, but sodium phosphate buffer instead of erythrose was used and it was immediately stopped at 85° C. for 10 min.
Analyses were performed using a Thermo Finnigan Surveyor HPLC instrument (Thermo Fisher Scientific, MA, US). All 10 μL samples were injected onto a Rezex RHM-Monosaccharide column (H+, 8%, 150×7.8 mm; Phenomenex, CA, US). Water was used as the mobile phase and elution was followed at 85° C., applying a flow rate of 0.3 mL/min for 20 min. 1 mM D-Erythrose (Sigma) and erythritol (Sigma) were used as reference substances.

[3] = substrate: O=CC=O; experiment: purified protein, by the assay type; conditions: other: substrate of Err1
[4] = substrate: O=C[C@H](O)CO; experiment: purified protein, by the assay type; conditions: other: substrate of Err1

| Molecule | Absorbance decrease [1] [mAbs/min] | activity compared with the other substrates (Err1; higher activity versus substrates with good activity for GLD1) | Km (Err1; substrate of Err1) [µM] | Vmax (Err1; substrate of Err1) [nkat/mg] | enzymatic conversion of erythrose (HPLC) [2] | Km [3] [µM] | Vmax [3] [µmol/min/mg] | Km [4] [µM] | Vmax [4] [µmol/min/mg] |
| --- | --- | --- | --- | --- | --- | --- | --- | --- | --- |
| O=C[C@H](O)[C@H](O)CO [Erythrose, D-erythrose] | −83.77 | approximately 10 fold | 16 | 530 | reduced to erythritol |  |  |  |  |
| O=CC=O [Glyoxal, glyoxal, reference compound] | −83.28 |  |  |  |  |  |  |  |  |
| B1 |  |  |  |  |  | 2400 | 22.5 | 900 | 9 |
